In patent US6908902B2, “Treatment of neurological dysfunction comprising fructopyranose sulfamates and erythropoietin” (Ortho-McNeil Pharmaceutical, Inc., priority 2001, dated 2005):

Key:
Format in all cases: cell-based
Rat Cortical Cultures [1] = assay: Array Scan Assay, Neurite Outgrowth (Neuron-specific); details: mean of eight observations
Excerpt: (§1) Dissociated hippocampal and cortical cell cultures were established from embryonic Day 18 rat fetuses as previously described (Mattson et al., 1994). Briefly, fetuses were removed via cesarean section from pregnant rats (Sprague-Dawley) and anesthetized with halothane according to the AVMA Panel on Euthanasia. Fetuses were decapitated and the brains were removed and placed in HEPES-buffered Hank's Balanced Salt solution (HBSS; Gibco). The hippocampi and cortices were dissected out and pooled according to tissue-type. Tissue was trypsinized for fifteen minutes (1 mg/ml trypsin-HBSS; Worthington), rinsed with fresh HBSS, incubated in trypsin inhibitor (1 mg/ml; Sigma) for five minutes, rinsed again with fresh HBSS and then triturated in 1 ml fresh HBSS with a fire-polished glass pipette. Dissociated cells were seeded at 20,000 cells (Array Scan Assay) and 30,000 cells (MAP2-FITC assay)/well onto poly-D-lysine coated 96-well plates (Collaborative BioScience). Each well contained 100 μl of Eagle's Minimal Essential Media (MEM; Gibco) supplemented with 26 mM NaHCO3 (Sigma), 56 mM glucose (Sigma), 15 mM KCl (Sigma), 1 mM sodium pyruvate (Sigma), 1.1 mM L-glutamine (Sigma), 10% (v/v) heat-inactivated fetal bovine serum (Hyclone), and 0.001% gentamicin sulfate (Sigma) (pH 7.4). Cells were allowed to attach for twenty-four hours in a humidified 37° C. 5% CO2 incubator before experimental treatment. The culture media was aspirated and exchanged with fresh media every three days.
Twenty-four hours after plating, rat cerebral cortical cell cultures, prepared as described above, were treated with vehicle (phosphate buffered saline+0.1% bovine serum albumin; Sigma), topiramate, EPO (rhEPO; 50 μM stock in 0.2 M citrate, 0.585 g/L NaCl diluted to appropriate concentrations in phosphate buffered saline+0.1% bovine serum albumin (BSA; Sigma)) or a combination of topiramate and EPO. On the third day in culture, the media was aspirated off and replaced with fresh media and test compound.
Culture media (prepared as described above) was aspirated and replaced with formaldehyde/Hoechst solution (fix cells and stain nuclei). Cultures were incubated in this solution for twenty minutes, then washed with permeabilization/wash/antibody (PWA) buffer. The buffer solution was aspirated and 100 μl of primary antibody (rabbit polyclonal IgG; specific for an epitope present only in neurons and neurites) was added to each well. The cultures were incubated for 60 minutes, then washed with PWA buffer. The buffer solution was again aspirated and 100 μl of secondary antibody (Alexa Fluor 488 conjugated goat anti-rabbit IgG) was added to each well. The cultures were incubated for 60 minutes and then washed with PWA buffer, followed by phosphate buffered saline (PBS) solution.
100 μl PBS-CM were added to each well, the plates were sealed and fluorescence was read on the Array Scan II System. (All reagents for this measurement were provided by the neurite outgrowth hit kit # K07-0001-1, Cellomics Inc.) The Array Scan algorithm for neurite outgrowth calculates the neurite outgrowth index for each field per well. This number represents the number of neurons with neurites divided by the total number of neurons in the field.
The ability of rhEPO, topiramate (TPM) and the combination of rhEPO and topiramate to increase neurite outgrowth in rat cortical cell cultures was determined according to the procedure described above, with results as listed in Table 1. For each dosage concentration, the measured value in the Table represents the mean percent change of eight experimental observations (from vehicle control). The abbreviation NT, as used in the Table below represents a concentration not tested.

Rat Cortical Cultures [2] = assay: Neurite Outgrowth MAP2-FITC Assay for Rat Cortical Cells; details: one week in culture, mean of eight observations
Excerpt: as §1
(§2) Twenty-four hours after plating, rat cortical cell cultures, prepared as in Example 1, were treated with vehicle (phosphate buffered saline+0.1% bovine serum albumin; Sigma), topiramate, EPO (rhEPO; 50 μM stock in 0.2 M citrate, 0.585 g/L NaCl diluted to appropriate concentrations in phosphate buffered saline+0.1% bovine serum albumin (BSA; Sigma)) or a combination of topiramate and EPO. On the third day in culture, the media was aspirated off and replaced with fresh media and test compound. At one week in culture, the cells were fixed with 10% phosphate-buffered formalin for fifteen minutes, then rinsed with phosphate buffered saline and placed in blocking serum for thirty minutes (horse serum; 1:50 dilution in phosphate buffered saline; Vector Labs). Cultures were rinsed again with phosphate buffered saline and then incubated in primary antibody for two hours (microtubule-associated protein-2 (MAP-2) is a selective marker for dendritic processes; anti-mouse monoclonal (Chemicon); 1:1000 dilution of MAP-2 in antibody diluent (Zymed)). Negative control wells were incubated in antibody diluent alone. Background signal was determined by blank wells (cell-free) incubated with or without antibody. Cultures were rinsed again with phosphate buffered saline and then placed in fluorescein-labeled secondary antibody for one hour (FITC; anti-mouse IgG; rat adsorbed; 1:50 dilution in DPBS; Vector Labs). Cultures were rinsed a final time with phosphate buffered saline. The plates were then read on a Cytofluor 4000 fluorescence plate reader. Neurite outgrowth was expressed as percent change from control (vehicle; mean fluorescence±SEM).
(§3) The ability of rhEPO, topiramate and the combination of rhEPO and topiramate to increase neurite outgrowth in rat cortical cultures was determined according to the procedure described above, with results as listed in Table 3. For each case or treatment, the measured value in the Table represents the mean percent change of eight experimental observations (from vehicle control). The abbreviation NT, as used in Table 3 represents a concentration not tested.

Rat Hippocampal Cultures = assay: Neurite Outgrowth MAP2-FITC Assay for Rat Hippocampal Cells; details: one week in culture, mean of eight observations
Excerpt: as §1
as §2, with “hippocampal” for “cortical”, “1 hr” for “one hour”
as §3, with “hippocampal” for “cortical”, “2.” for “3.”, “2” for “3”

[3] = Concentration 1 pM (rhEPO concentration in combinations)
[4] = Concentration 10 pM (rhEPO concentration in combinations)
[5] = Concentration 100 fM (rhEPO concentration in combinations)
[6] = Concentration 1 fM (rhEPO concentration in combinations)
[7] = Concentration 10 fM (rhEPO concentration in combinations)

Compound	Neurite outgrowth, mean percent change from vehicle control (Measured) (Rat Cortical Cultures [1]; [3])	Neurite outgrowth, mean percent change from vehicle control (Measured) (Rat Cortical Cultures [1]; [4])	Neurite outgrowth, mean percent change from vehicle control (Measured) (Rat Cortical Cultures [1]; Concentration 100 pM)	Neurite outgrowth, mean percent change from vehicle control (Measured) (Rat Cortical Cultures [1]; [5])	Neurite outgrowth, mean percent change from vehicle control (Measured) (Rat Cortical Cultures [2]; [3])	Neurite outgrowth, mean percent change from vehicle control (Measured) (Rat Cortical Cultures [2]; [4])	Neurite outgrowth, mean percent change from vehicle control (Measured) (Rat Cortical Cultures [2]; Concentration 100 pM)	Neurite outgrowth, mean percent change from vehicle control (Measured) (Rat Cortical Cultures [2]; [5])	Neurite outgrowth, mean percent change from vehicle control (Measured) (Rat Hippocampal Cultures; [3])	Neurite outgrowth, mean percent change from vehicle control (Measured) (Rat Hippocampal Cultures; [4])	Neurite outgrowth, mean percent change from vehicle control (Measured) (Rat Hippocampal Cultures; Concentration 100 pM)	Neurite outgrowth, mean percent change from vehicle control (Measured) (Rat Hippocampal Cultures; [5])	Neurite outgrowth, mean percent change from vehicle control (Measured) (Rat Cortical Cultures [1]; [6])	Neurite outgrowth, mean percent change from vehicle control (Measured) (Rat Cortical Cultures [1]; [7])	Neurite outgrowth, mean percent change from vehicle control (Measured) (Rat Cortical Cultures [2]; [6])	Neurite outgrowth, mean percent change from vehicle control (Measured) (Rat Cortical Cultures [2]; [7])	Neurite outgrowth, mean percent change from vehicle control (Measured) (Rat Hippocampal Cultures; [6])	Neurite outgrowth, mean percent change from vehicle control (Measured) (Rat Hippocampal Cultures; [7])
CC1(C)O[C@@H]2[C@@H](CO[C@@]3(COS(N)(=O)=O)OC(C)(C)O[C@@H]23)O1 [Topiramate, 2,3:4,5-bis-O-(1-methylethylidene)-β-D-fructopyranose sulfamate, reference compound]	0%	20%	12%	4%	23%	30%	37%	24%	14%	5%	−9%	33%	–	–	–	–	–	–
rhEPO: Recombinant human erythropoietin; amino acid sequence identical to that of human urinary erythropoietin	9%	11%	–	28%	19%	24%	–	10%	20%	21%	–	12%	29%	−1%	−14%	−2%	21%	15%
